# Reference: patent publication US4980357A, “Azolidinedione derivatives” (Pfizer Inc., priority 1990, dated 1990)
# How the values were obtained:
# [1] = system: sorbitol accumulation in the sciatic nerve; assay: inhibition of sorbitol accumulation in the sciatic nerve of streptozotocinized (diabetic) rats; type: in vivo, rat; settings: oral, 0.1-10.0 mg./kg., in words
# Procedure: (§1) The activity of the compounds of the present invention, as agents for the control of chronic diabetic complications, is determined by their ability to successfully pass one or more of the following standard biological or pharmacological tests, viz., (1) measuring their ability to inhibit the enzyme activity of isolated aldose reductase; (2) measuring their ability to reduce or inhibit sorbitol accumulation in the sciatic nerve and lens of acutely streptozotocinized (i.e., diabetic) rats; (3) measuring their ability to reverse already-elevated sorbitol levels in the sciatic nerve and lens of chronic streptozotocin-induced diabetic rats; (4) measuring their ability to prevent or inhibit galactitol formation in the lens of acutely galactosemic rats, and (5) measuring their ability to delay cataract formation and reduce the severity of lens opacities in chronic galactosemic rats.
# (§2) The following spiro-3-heteroazolone compounds of Examples 4A, 4B, 6 and 10A, respectively, were tested for their ability to reduce or inhibit sorbitol accumulation in the sciatic nerve and lens of streptozotocinized (i.e., diabetic) rats by the procedure essentially described in U.S. Pat. No. 3,821,383. In the present study, the amount of sorbitol accumulation in the sciatic nerve and lens of each test animal was measured 27 hours after induction of diabetes. […]
# [2] = system: sorbitol accumulation in the lens; assay: inhibition of sorbitol accumulation in the lens of streptozotocinized (diabetic) rats; type: in vivo, rat; settings: oral, 0.1-10.0 mg./kg., in words
# Procedure: as §1, §2
structure (smiles),measurement,setting,value
"C[C@@H]1C[C@]2(NC(=O)NC2=O)c2cc(Cl)cnc2O1 [Example 10A, (4'S)(2'R)-6'-chloro-2',3'-dihydro-2'-methyl-spiro-[imidazolidine-4,4'-4'H-pyrano[2,3-b]pyridine]-2,5-dione]",inhibit the formation of sorbitol levels in the sciatic nerve,[1],to a significantly high degree
same,inhibit the formation of sorbitol levels in the lens,[2],to a significantly high degree
